Molecules are shown by their SMILES. Like-named read-outs stand apart in the source and are kept apart here.

For one data set, the target named is LCK tyrosine kinase (Homo sapiens, UniProt P06239, C224D/P223M). Description: LCK spectrophotometric assay. The format is biochemical. How it is done: The spectrophotometric assay was carried out as described above for VEGF-R2, except for the following changes in concentration: LCK = 60 nM, MgCl2 = 0 mM, poly(E4Y1) = 20 mM.
The target in another data set is human FGF-R1 (Homo sapiens, UniProt P11362, C488A/C584S/L457V). The experiment in a line: FGF-R spectrophotometric assay. The data set is classed as biochemical. How it is done: The spectrophotometric assay was carried out as described above for VEGF-R2, except for the following changes in concentration: FGF-R = 50 nM, ATP = 2 mM, and poly(E4Y1) =15 mM.
Sequence of human FGF-R1 (P11362 456-766 L457V/C488A/C584S): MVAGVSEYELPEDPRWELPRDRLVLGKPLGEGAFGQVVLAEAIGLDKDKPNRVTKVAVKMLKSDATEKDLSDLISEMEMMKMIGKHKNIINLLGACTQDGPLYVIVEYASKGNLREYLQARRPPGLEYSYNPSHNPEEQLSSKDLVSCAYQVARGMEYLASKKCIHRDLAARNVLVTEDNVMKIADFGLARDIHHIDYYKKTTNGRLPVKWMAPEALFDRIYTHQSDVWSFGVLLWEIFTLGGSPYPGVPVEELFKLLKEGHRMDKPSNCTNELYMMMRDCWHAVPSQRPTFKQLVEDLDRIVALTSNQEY
Data set [1] has as its system human umbilical vein endothelial cells (HUVEC). The experiment in a line: HUVEC proliferation assay (VEGF-stimulated, MTT). The format is cell-based. Particulars: for IC50: Homo sapiens, HUVEC, Table 1. How it is done:
This assay determines the ability of a test compound to inhibit the growth factor-stimulated proliferation of human umbilical vein endothelial cells ("HUVEC"). HUVEC cells (passage 3-4, Clonetics, Corp.) were thawed into EGM2 culture medium (Clonetics Corp) in T75 flasks. Fresh EGM2 medium was added to the flasks 24 hours later. Four or five days later, cells were exposed to another culture medium (F12K medium supplemented with 10% fetal bovine serum (FBS), 60 µg/mL endothelial cell growth supplement (ECGS), and 0.1 mg/mL heparin). Exponentially-growing HUVEC cells were used in experiments thereafter. Ten to twelve thousand HUVEC cells were plated in 96-well dishes in 100 µl of rich, culture medium (described above). The cells were allowed to attach for 24 hours in this medium. The medium was then removed by aspiration and 105 µl of starvation media (F12K+1% FBS) was added to each well. After 24 hours, 15 µl of test agent dissolved in 1% DMSO in starvation medium or this vehicle alone was added into each treatment well; the final DMSO concentration was 0.1%. One hour later, 30 µl of VEGF (30 ng/mL) in starvation media was added to all wells except those containing untreated controls; the final VEGF concentration was 6 ng/mL. Cellular proliferation was quantified 72 hours later by MTT dye reduction, at which time cells were exposed for 4 hours MTT (Promega Corp.).

Where [2] appears, read: Table 1, compound concentration 1 µM, read-out: FGF-P* (% inhibition).
Where [3] appears, read: Table 1, compound concentration 1 µM, read-out: Lck-P* (% inhibition).
The mark [4] stands for this setting: mouse, in vivo, ip, 25 mg/kg, pH 2.3.
Where [5] appears, read: mouse, in vivo, po, 50 mg/kg, pH 2.3.
Where [6] appears, read: mouse, in vivo, po, 25 mg/kg, pH 2.3.
The mark [7] stands for this setting: PO, 25 mg/kg, vehicle PEG400:H2O pH 2.3 30:70.

Sequence of LCK tyrosine kinase (P06239 223-509 P223M/C224D): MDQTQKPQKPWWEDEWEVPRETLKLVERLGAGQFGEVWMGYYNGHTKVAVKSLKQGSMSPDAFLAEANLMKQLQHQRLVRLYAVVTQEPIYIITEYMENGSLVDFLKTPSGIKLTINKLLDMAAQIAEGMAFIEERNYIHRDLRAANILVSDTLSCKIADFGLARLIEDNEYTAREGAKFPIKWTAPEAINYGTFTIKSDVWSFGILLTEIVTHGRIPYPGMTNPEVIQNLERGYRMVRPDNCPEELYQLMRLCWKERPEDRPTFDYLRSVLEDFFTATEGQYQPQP

On to `C=CCOc1cc(-c2ccc3c(/C=C/c4ccc(OC)c(OC)c4)n[nH]c3c2)ccc1O` [1(c), 3-[E-2-(3,4-Dimethoxy-phenyl)vinyl]-6-(3-allyloxy-4-hydroxyphenyl)-1H-indazole], for which the inhibition at 1 µM at LCK tyrosine kinase (read-out: Lck-P* (% inhibition)) worked out at 46%.
Take `COc1cc(-c2ccc3c(-c4ccccc4)n[nH]c3c2)ccc1O` [2(b), 3-phenyl-6-(3-methoxy-4-hydroxy-phenyl)-1H-indazole]: the Ki on human FGF-R1 (read-out: FGF-P* (Ki, cell in µM), Table 1) was found to be 228 µM.
With `Oc1cccc(Oc2ccc3c(/C=C/c4ccccc4)n[nH]c3c2)c1` [9(a), 3-(E-styryl)-6-[3-hydroxyphenoxy]-1H-indazole], the half-inhibitory concentration (IC50) in data set [1] (read-out: HUVEC IC50) was found to be 870 nM.
With `Cc1cnc(C(=O)Nc2cccc(N(C)c3ccc4c(/C=C/c5ccccc5)n[nH]c4c3)c2)s1` [12(d), 5-Methyl-thiazole-2-carboxylic acid {3-[methyl-(3-styryl-1H-indazol-6-yl)-amino]-phenyl)-amide], the figures for the inhibition at 1 µM on human FGF-R1 (setting [2]) and at LCK tyrosine kinase (setting [3]) were 61% and 31%, respectively. Moreover, in data set [1] (read-out: HUVEC IC50), the IC50 worked out at 8.1 nM.
Take `CN(C)c1cccc(C(=O)Nc2cccc(N(C)c3ccc4c(/C=C/c5ccc6c(c5)OCO6)n[nH]c4c3)c2)c1` [16(c), N-(3-{[3-(2-Benzo[1,3]dioxol-5-yl-vinyl)-1H-indazol-6-yl]-methyl-amino}-phenyl)-3-dimethylamino-benzamide]: the concentration for half-maximal inhibition (IC50) in data set [1] (read-out: HUVEC IC50) is 100 to 1000 nM.
On the same count and under the same terms, the result for `CN(c1cccc(NC(=O)c2ccc(O)c(C(C)(C)C)c2)c1)c1ccc2c(/C=C/c3ccc4c(c3)OCO4)n[nH]c2c1` [16(f)] reads more than 30 nM; that for `Cc1cncc(C(=O)Nc2cccc(C(=O)c3ccc4c(/C=C/c5ccccc5)n[nH]c4c3)c2)c1` [19(e), 6-[3-(5-methylpyridin-3-ylcarboxamide)benzoyl]-3-E-styryl-1H-indazole], more than 300 nM; that for `C=C(c1cccc(NC(=O)OCc2ccccc2)c1)c1ccc2c(/C=C/c3ccccc3)n[nH]c2c1` [22(c)], 38 nM.
Take `COc1cc(O)ccc1-c1ccc2c(-c3nc4ccccc4[nH]3)n[nH]c2c1` [24(d), 3-1H-Benzoimidazol-2-yl-6-(4-hydroxy-2-methoxyphenyl)-1H-indazole]: the inhibition at 1 µM on human FGF-R1 (read-out: FGF* (% inhibition)) worked out at 66%; on LCK tyrosine kinase (read-out: Lck* (% inhibition)), 51%.
Under setting [4], `Cc1cc(C(=O)Nc2cccc(C(=O)c3ccc4c(/C=C/c5ccccn5)n[nH]c4c3)c2)on1` [41 (m)] came in with an AUCleast of 1864 ng·h/mL and a T1/2 of 2.3 h. Moreover, the AUCleast under setting [5] worked out at 9 ng·h/mL.
For `CCc1cc(C(=O)Nc2cccc(C(=O)c3ccc4c(/C=C/c5ccccn5)n[nH]c4c3)c2)n(C)n1` [41 (v)], under setting [6], the AUCleast was found to be 10949 ng·h/mL and the T1/2 came to 4.4 h.
Turning to `CC(C)COC(=O)Nc1cccc(C(=O)c2ccc3c(/C=C/c4ccccn4)n[nH]c3c2)c1` [41 (y)], under setting [7], the AUCleast result is on record as “Blq”, the Cmax result was “Blq” and the “Cmin (7 hr conc.)” value is “blq”.
As for `O=C(Nc1cccc(C(=O)c2ccc3c(/C=C/c4ccccn4)n[nH]c3c2)c1)c1ccccc1` [42 (a)], the AUCleast was found to be 19899 ng·h/mL under setting [4] and 8384 ng·h/mL under setting [5]. Besides, the T1/2 by setting is: under setting [4], 5.0 h; under setting [5], 2.0 h.
Taken in the same sequence, the figures for `O=C(Nc1cccc(C(=O)c2ccc3c(-c4nc5ccccc5[nH]4)n[nH]c3c2)c1)c1ccccc1` [42 (b)] were 3207 ng·h/mL, 4747 ng·h/mL, 3.0 h and 3.0 h.
Under setting [4], `O=C(Nc1cccc(C(=O)c2ccc3c(-c4nc5cccnc5[nH]4)n[nH]c3c2)c1)c1ccccc1` [42 (d)] showed an AUCleast of 1774 ng·h/mL and a T1/2 of 1.4 h. Besides, the AUCleast under setting [5] was 46 ng·h/mL.
On to `O=C(Nc1cccc(C(=O)c2ccc3c(/C=N/n4cccc4)n[nH]c3c2)c1)c1ccccc1` [45 (b)], for which the AUCleast reads like this: under setting [4], 11361 ng·h/mL; under setting [5], 1636 ng·h/mL. The T1/2 reads like this: under setting [4], 2.0 h; under setting [5], 3.0 h.
In turn, `CCn1nc(C)cc1C(=O)Nc1cc(Nc2ccc3c(/C=C/c4ccccn4)n[nH]c3c2)c(F)cc1C` [48 (a)] registered an AUCleast under setting [4] of 27000 ng·h/mL and an AUCleast under setting [6] of 26636 ng·h/mL.
With `Cc1cc(C(=O)Nc2cc(Nc3ccc4c(/C=C/c5ccccn5)n[nH]c4c3)c(F)cc2C)n(C)n1` [48 (b)], under setting [6], the AUCleast is 2191 ng·h/mL and the T1/2 was determined as 4 h.
Turning to `Cc1cc(C(=O)Nc2cc(Nc3ccc4c(/C=C/c5ccccn5)n[nH]c4c3)ccc2F)n(C)n1` [49 (a)], the AUCleast under setting [6] came out at 712 ng·h/mL.
In the case of `Cc1cc(C(=O)Nc2cc(Nc3ccc4c(/C=C/c5ccccn5)n[nH]c4c3)ccc2C)n(C)n1` [49 (b)], the AUCleast under setting [6] worked out at 33750 ng·h/mL.
Consider `CCn1nc(C)cc1C(=O)Nc1cccc(C(=O)c2ccc3c(/C=C/c4ccccn4)n[nH]c3c2)c1.Cl` [59 (a)], for which the AUCleast is, setting by setting: (mouse, in vivo, po, 8 mg/kg) 7707 ng·h/mL; (mouse, in vivo, po, 40 mg/kg) 57240 ng·h/mL; (mouse, in vivo, po, 200 mg/kg) 156153 ng·h/mL. The T1/2 reads like this: (mouse, in vivo, po, 8 mg/kg) 1.5 h; (mouse, in vivo, po, 40 mg/kg) 2.4 h; (mouse, in vivo, po, 200 mg/kg) 9.4 h.
`Cc1cc(C(=O)Nc2cccc(C(=O)c3ccc4c(/C=C/c5ccccn5)n[nH]c4c3)c2)n(C)n1.Cl` [59 (b)] returned an AUCleast (mouse, in vivo, po, 50 mg/kg) of 276467 ng·h/mL.
`CCn1nc(C)cc1C(=O)Nc1cc(Nc2ccc3c(/C=C/c4ccccn4)n[nH]c3c2)c(F)cc1C.Cl` [59 (c)] showed an AUCleast (mouse, in vivo, po, 25 mg/kg) of 327135 ng·h/mL.
Consider `Cc1cc(C(=O)Nc2cc(Nc3ccc4c(/C=C/c5ccccn5)n[nH]c4c3)ccc2F)n(C)n1.Cl` [59 (d)], for which the AUCleast is more than 24696 ng·h/mL (mouse, in vivo, po, 8 mg/kg); more than 32297 ng·h/mL (mouse, in vivo, po, 40 mg/kg); more than 123206 ng·h/mL (mouse, in vivo, po, 200 mg/kg).
For the setting “mouse, in vivo, po, 25 mg/kg”, `CCn1nc(C)cc1C(=O)Nc1cccc(Oc2ccc3c(/C=C/c4ccccn4)n[nH]c3c2)c1.Cl` [59 (e)] registered an AUCleast of 12510 ng·h/mL and a T1/2 of 21 h.
As for `NC(=O)c1ccccc1Sc1ccc2c(/C=C/c3ccccn3)n[nH]c2c1` [H-X1], the “% inhibition of the proliferation of HUVEC, 0.5 nM” value in data set [1] (Library Table II, Y = S (reference Example), nominal concentration 0.5 nM, crude library reaction mixtures, >50% considered significant) is 9%. Further, the “% inhibition of the proliferation of HUVEC, 2 nM” value in data set [1] (Library Table II, Y = S (reference Example), nominal concentration 2 nM, crude library reaction mixtures, >50% considered significant) is listed as 30%.
Consider `COc1cc(O)ccc1-c1ccc2c(-c3nc4c(SCCO)cccc4[nH]3)n[nH]c2c1` [Reference Example 25(f), 3-[4-(2-hydroxyethylsulfanyl)-1H-benzoimidazol-2-yl)-6-(2-methoxy-4-hydroxyphenyl)-1H-indazole], for which the figures for the inhibition at 1 µM at human FGF-R1 (read-out: FGF* (% inhibition)) and at LCK tyrosine kinase (read-out: Lck* (% inhibition)) were 56% and 58%, respectively.
Turning to `CNC(=O)c1cccc2[nH]c(-c3n[nH]c4cc(-c5ccc(O)cc5OC)ccc34)nc12` [Reference Example 25(j), 3-(4-methylcarbamoyl-1H-benzoimidazol-2-yl)-6-(2-methoxy-4-hydroxy-phenyl)-1H-indazole], at human FGF-R1 (read-out: FGF* (% inhibition)), the inhibition at 1 µM stood at 70%.
`CC(=O)N1CCC(C(=O)Nc2cccc(Oc3ccc4c(/C=C/c5ccc(Cl)cc5)n[nH]c4c3)c2)CC1` [Reference Example 30(b), 6-[3-(1-acetylpiperidin-4-ylcarboxamido)phenoxy]-3-E-[2-(4-chlorophenyl)ethenyl]-1H-indazole]: the IC50 in data set [1] (read-out: HUVEC IC50) amounted to 90 nM.
On to `O=C(Nc1cccc(Oc2ccc3c(/C=C/c4ccccc4)n[nH]c3c2)c1)c1cccc2[nH]ccc12` [Reference Example 30(d), 6-[3-(indol-4-ylcarboxamido)phenoxy]-3-E-stryrylindazole], for which the 50% inhibitory concentration (IC50) in data set [1] (+ albumin, read-out: HUVEC + albumin IC50) was 3.8 nM.
As for `CC(C)(C)c1ccc(C(=O)Nc2cccc(C(=O)c3ccc4c(/C=C/c5ccccn5)n[nH]c4c3)c2)cc1` [Reference Example 41(s), 6-[3-(4-t-butylbenzamido)benzoyl}-3-E-[2-(pyridin-2-yl)ethenyl]-1H-indazole], the inhibition at 1 µM on human FGF-R1 (setting [2]) was found to be 86%; at LCK tyrosine kinase (setting [3]), 53%.

For the origin of these results see patent EP1614683B1, “Indazole compounds and pharmaceutical compositions for inhibiting protein kinases, and methods for their use” (priority 1999, dated 2001).
